Data taken from patent publication US20260022122A1 (Checkmate Therapeutics Inc., priority 2022, published 2026).

Tests used:
[1] = system: NAPRT positive cell lines (H1993, H2122, H2030, H1975, H1299, HBEC30); experiment: Proliferation inhibition on NAPRT positive lung cancer cell lines (CellTiter-Glo); type: cell-based; conditions: 72 hours
Method: (§1) A compound showing a low IC50 value was selected from the compounds of the above Examples and treated an NAPRT positive or negative lung cancer cell line with various concentrations, and then the change in cell viability for each cell line was measured. The results are presented in a graph (a few materials known as NamPT inhibitors were used as controls). A total of 9 cancer cells lines (three NAPRT negative cell lines: H322, H661, and H1155; and six NAPRT positive cell lines: H1993, H2122, H2030, H1975, H1299, and HBEC30) were used. 5% fetal bovine serum (Gibco, US) and 1% penicillin/streptomycin (Gibco) were added to a medium, and the cells were cultured in a 37° C. constant temperature incubator containing 5% CO2. For compound treatment, each type of cells were seeded at 3×10^3 cells/well in a 96-well plate (Corning) and then incubated in a 37° C. constant temperature incubator containing 5% CO2 for 18 hours. […] Afterwards, the cells were cultured in an incubator containing 5% CO2 at 37° C. for 72 hours. To confirm the effect of inhibiting the proliferation of cancer cells, a CellTiter-Glo Luminescent Cell Viability Assay (Promega) was used. After treating the cells with 10 μL of CellTiter-Glo luciferase reagent and leaving them for 15 minutes at room temperature, the luminescence of each well was measured using EnVision2105 (PerkinElmer). The change in cell viability by the compound diluted at the concentration of each step was converted into a relative % value for the amount of luminescence shown by DMSO treatment. EC50 is expressed as the concentration of each compound that induces 50% of the maximum luminescence level.
(§2) The results of measuring the proliferation inhibition ability of the compound of each Example on nine types of lung cancer cell lines, obtained through the above experiment, are shown in Table 2 in the unit of EC50 (μM). The resulting values are expressed as follows.

NamPT = NamPT (Homo sapiens (Human), UniProt P43490); experiment: Measurement of NamPT inhibitory ability IC50 (NamPT colorimetric assay kit, Abcam ab221819); type: biochemical; conditions: NamPT recombinant protein, WST-1 absorbance at 450 nm; class key in μM
NamPT, sequence (P43490 whole entry): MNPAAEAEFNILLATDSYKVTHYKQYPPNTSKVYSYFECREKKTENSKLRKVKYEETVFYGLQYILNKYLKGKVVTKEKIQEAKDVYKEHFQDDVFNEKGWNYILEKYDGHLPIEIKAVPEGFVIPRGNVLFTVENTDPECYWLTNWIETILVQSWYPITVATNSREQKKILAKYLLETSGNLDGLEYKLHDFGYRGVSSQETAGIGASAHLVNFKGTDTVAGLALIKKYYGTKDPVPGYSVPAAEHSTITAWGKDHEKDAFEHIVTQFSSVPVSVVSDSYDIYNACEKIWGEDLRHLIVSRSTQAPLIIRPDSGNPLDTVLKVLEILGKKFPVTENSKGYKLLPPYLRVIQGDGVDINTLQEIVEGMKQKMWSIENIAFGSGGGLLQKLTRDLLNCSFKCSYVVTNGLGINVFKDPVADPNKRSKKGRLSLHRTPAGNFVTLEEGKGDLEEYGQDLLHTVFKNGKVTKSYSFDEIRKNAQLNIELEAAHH
Method: To test the effect of the compound prepared in each Example on the substrate decomposition rate (Vmax/min) mediated by NamPT enzyme, IC50 was calculated. In this experiment, the NamPT colorimetric assay kit (ab221819) produced by Abcam was used, and Graph prism software was used for IC50 calculation. PRPP, ATP, NMNAT1, NamPT recombinant proteins, and various concentrations of the compound of each Example (half-log step dilution from 100 μM) were added to nicotinamide to synthesize nicotinamide adenine dinucleotide (NAD) from the nicotinamide, and a total of 60 μL of the reaction solution was reacted at room temperature for 1 hour. WST-1 formazan converted by NAD generated by adding WST-1 was measured. The result of the reaction was obtained by the following formula by measuring absorbance using EnVision2105 (PerkinElmer) at 450 nm for 60 minutes at 2-minute intervals.
In Mathematical Formula 1, T1 and T2 are arbitrary times, and A1 and A2 represent the absorbance measured at T1 and T2 at 450 nm, respectively.
The results of measuring the NamPT inhibition activity of the compound of each Example obtained through the above experiment are shown in Table 1 in the unit of IC50 (nM), and the result values are expressed as follows.

[2] = system: NAPRT-negative gastric cancer cell line HGC27; experiment: NAPRT-negative cancer cell xenograft model (% tumor growth inhibition); type: in vivo; conditions: 50 mg/kg, orally once a day from day 1 to day 21, HGC27 xenograft in BALB/c nude mice
From the text: Based on the effect of inhibiting proliferation limited to NAPRT-negative cancer cell lines according to the experiment of the proliferation inhibitory effect (EC50) on NAPRT-negative cancer cell lines, the pharmacological effect in a xenograft model using NAPRT-negative cancer cell lines was verified. Five-week-old female BALB/c nude mice were purchased and used in the experiment after acclimation for one week. The cancer cells used in the experiment were a NAPRT-negative gastric cancer cell line HGC27, and cultured in […] medium (Gibco) to which 5% Fetal Bovine Serum (Gibco, US) and 1% penicillin/streptomycin (Gibco) were added. HGC27 was suspended in PBS (Welgene) and transplanted to have 5×10^6 cells into each mouse. After adding Matrigel in the same value, tumors were induced by subcutaneous injection into the right flank using a 1 mL syringe. After 3 weeks of breeding, when the average tumor size was 100 to 150 mm^3, mice were randomly divided into groups of 7 and administered each compound. The compound was prepared in an excipient (0.5% DMSO/2% Tween 80/20% PEG 400/20% b-HPCD in 77.5% DW) as an agent for oral administration, and administered orally once a day from day 1 to day 21 to the mouse model in which a tumor was generated. From day 1 to day 21, the body weight was measured once daily, and the tumor size was measured three times a week. The tumor size was measured using a caliper and calculated using the following formula.
In Mathematical Formula 2, W is a length, and d is a width.
On day 21, all animals were euthanized, blood samples were collected, and tumors were removed. To evaluate blood toxicity, blood was collected from an EDTA-containing blood collection tube, and subjected to a general blood test (complete blood count, CBC) and a blood biochemical test. Isolated tumors were weighed after photographing and a portion was used to measure NAD to verify the on-target efficacy of the compound. To measure NAD, a NAD/NADH Quantitation Colorimetric Kit (K337) produced by BioVision was used.
The pharmacological effect of each compound in the NAPRT-negative cancer cell xenograft models, obtained in this experiment, is shown in Table 3 in the unit of % TGI (tumor growth inhibition).

[3] = system: NAPRT negative lung cancer cell lines (H322, H661, H1155); experiment: Proliferation inhibition on NAPRT negative lung cancer cell lines (CellTiter-Glo); type: cell-based; conditions: 72 hours
Method: as §1, §2

EC50 [1] | IC50 (NamPT) | EC50 [3] | SMILES | % TGI (Tumor Growth inhibition) [2]
> 101 µM | < 0.05 µM | < 0.05 µM | O=C(NCc1ccc(-c2nc3ccc(Cl)cc3o2)cc1)c1cnc2nccn2c1 [Example 4, N-[[4-(6-chloro-1,3-benzoxazol-2-yl)phenyl]methyl]imidazo[1,2-a]pyrimidin-6-carboxamide] | 80%
> 101 µM | < 0.05 µM | < 0.05 µM | Cc1cc2nc(-c3ccc(CNC(=O)c4cnc5nccn5c4)cc3)oc2cc1Cl [Example 10, N-[[4-(6-chloro-5-methyl-1,3-benzoxazol-2-yl)phenyl]methyl]imidazo[1,2-a]pyrimidin-6-carboxamide] | 61%
> 101 µM | < 0.05 µM | < 0.05 µM | O=C(NCc1ccc(-c2nc3cc(C(F)(F)F)ccc3o2)cc1)c1cnc2nccn2c1 [Example 13, N-[[4-[5-(trifluoromethyl)-1,3-benzoxazol-2-yl]phenyl]methyl]imidazo[1,2-a]pyrimidin-6-carboxamide] | 63%
